Data: article PMC12508156, “Non-canonical dihydrolipoyl transacetylase promotes chemotherapy resistance via mitochondrial tetrahydrofolate signaling” (Nature Communications, 2025)
pIC50: −log10 of the molar value. Values joined by “and” are separate entries in the source; they are usually repeats but may differ in a detail not shown here. Equal entries are not always repeated.

Legend:
A549cisR cells [1] = assay: Cell viability (CellTiter-Glo); assay type: cell-based, human; set-up: unit not given here; settings: 48 h, n=1-3: biological replicates
Method: (§1) Cell viability was determined using the CellTiter-Glo Luminescent Cell Viability Assay. […] Subsequently, the cells were cultured in complete medium for an additional 10 days, and the resulting colonies were visualized by staining with crystal violet and quantified using ImageJ software. For cell cycle analysis, cells fixed with 70% ethanol were stained with RNase A (100 µg/mL) and propidium iodide (50 μg/ml) for 30 min at 37 °C, and DNA content distribution was measured using flow cytometry (BD Symphony A3) and analyzed with FlowJo software (v10.9). Apoptotic cell death was assessed via FITC-conjugated annexin V and propidium iodide staining.

H1299 cells = assay: Cell viability (CellTiter-Glo); assay type: cell-based, human; set-up: unit not given here; settings: 48 h, n=1-3: biological replicates
Method: as §1

KB-3-1cisR cells [2] = assay: Cell viability (CellTiter-Glo); assay type: cell-based, human; set-up: unit not given here; settings: 48 h, n=1-3: biological replicates
Method: as §1

PCI-37B cells = assay: Cell viability (CellTiter-Glo); assay type: cell-based, human; set-up: unit not given here; settings: 48 h, n=1-3: biological replicates
Method: as §1

A549cisR cells [3] = settings: read-out: cisplatin IC50; A549cisR cells generated by continuous exposure to cisplatin; cited from earlier work
Method: (§2) The RNAi library contains 328 shRNA clones, and each gene was targeted by 2 ~ 8 clones (Fig. 1a). Eleven genes, including DLAT, were selected as unexplored lead hits with cisplatin-sensitizing potential and were further evaluated in A549^cisR, H1299, and KB-3-1^cisR, and two acetyltrans ... || HCT116 and HT-29 colon cancer cell lines, MDA-MB231, HeLa, 293T, and KB-3-1^cisR cells were cultured in Dulbecco Modified Eagle Medium (DMEM). The PCI-37B and FaDu cell lines was maintained in DMEM/Ham’s F-12 50/50 mix medium. […] All media contained 100 U/ml penicillin and 100 μg/ml of streptomycin, supplemented with 10% fetal bovine serum. The identity of KB-3-1 and PCI-37B cells were described previously[45],[58],[59]. All other cell lines were from the American Type Culture Collection (ATCC). KB-3-1^cisR and A549^cisR cells w ...

KB-3-1cisR cells [4] = settings: read-out: cisplatin IC50; KB-3-1cisR cells generated by continuous exposure to cisplatin; cited from earlier work
Method: as §2

[5] = tested on: A549cisR and KB-3-1cisR cells; assay: Cell cycle distribution (propidium iodide, flow cytometry); assay type: cell-based, human
Method: as §1
1cisR cells were transduced with DLAT-targeting shRNA and treated with sublethal doses of […]
antioxidant N-acetylcysteine (NAC). (a) Western blot analysis of p21 waf1/cip1 expression as a marker of cellular senescence. (b) Western blot analysis of LC3-I/II and p62 as markers of autophagy. (c) Cell cycle distribution was assessed by flow cytometry following propidium iodide staining. (d) Intracellular ROS levels were measured using the H2DCFDA probe. Error bars represent SD and are from 3 independent biological replicates for (c,d). P values were determined by one-way ANOVA.
(1 picture or pasted object on this page, not shown here)

[6] = tested on: lung cancer patient-derived xenograft tumors; assay: IHC of lung cancer PDX tumors (Ac-K44 MTHFD2, MT-CO2, DLAT); assay type: in vivo, athymic nu/nu mice; set-up: key: IHC intensity score 0 to 3+; settings: lung cancer PDX tumors (Figure 8M)
Source text: Formalin-fixed and paraffin-embedded tumor tissue specimens from HNSCC and NSCLC patients were obtained from the […] Cancer Tissue and Pathology Shared Resources. The Institutional Review Board (IRB) of Emory University approved using human specimens (IRB00003208 - HNSCC, IRB00098377 - NSCLC). Clinical samples were collected with informed consent according to the Health Insurance Portability and Accountability Act. Patients' clinical information was obtained through the […] Technology Applications Shared Resource. Tumors from HNSCC or NSCLC patients who received chemotherapy-containing regimens were used. Immunohistochemistry (IHC) staining of DLAT, acetyl-[…] MTHFD2, MT-CO2, and Ki-67 was performed based on the established protocol. Antigen retrieval was conducted in Tris-EDTA (pH 9.0) for acetyl-[…] MTHFD2 and MT-CO2 and sodium citrate (pH 6.0) for the remaining antigens. […] Assessment of positive DLAT, MT-CO2, and acetyl-[…] MTHFD2 staining intensity within tumor cells was performed using a scoring system ranging from 0 to 3+ based on IHC signal intensity. Mice were subcutaneously injected into the flank with 1 × 10^6 KB-3-1^cisR cells with or without DLAT knockdown. […] Tumors were collected at the experimental endpoint, and tumor proliferation was assessed using Ki-67 IHC staining. The localization, penetration, and efficacy of DMp39 were monitored by assessing the acetyl-[…] levels in tumors and fluorescence imaging analysis using an IVIS imaging system. Drug-induced organ toxicities, including splenomegaly, liver damage, and kidney injury, were monitored by assessing spleen index, alanine transaminase activity, and cystatin C levels in plasma.

[7] = A549cisR cells, pLKO.1, replicate 1
[8] = A549cisR cells, pLKO.1, replicate 2
[9] = A549cisR cells, pLKO.1, replicate 3
[10] = A549cisR cells, shDLAT, replicate 1
[11] = A549cisR cells, shDLAT, replicate 2
[12] = A549cisR cells, shDLAT, replicate 3
[13] = KB-3-1cisR cells, pLKO.1, replicate 1
[14] = KB-3-1cisR cells, pLKO.1, replicate 2
[15] = KB-3-1cisR cells, pLKO.1, replicate 3
[16] = KB-3-1cisR cells, shDLAT, replicate 1
[17] = KB-3-1cisR cells, shDLAT, replicate 2
[18] = KB-3-1cisR cells, shDLAT, replicate 3

N.N.[Cl][Pt][Cl] [cisplatin]
cisplatin IC50 (A549cisR cells [1]; DLAT #1 shRNA knockdown): 3.049 and 3.093 and 3.477 | cisplatin IC50 (A549cisR cells [1]; DLAT #2 shRNA knockdown): 3.68 and 3.342 and 3.385 | cisplatin IC50 (A549cisR cells [1]; pLKO.1 control): 10.93 and 10.63 and 11.6 | cisplatin IC50 (H1299 cells; H1299, DLAT #1 shRNA knockdown): 4.334 and 4.088 and 4.359 | cisplatin IC50 (H1299 cells; H1299, DLAT #2 shRNA knockdown): 9.212 and 9.08 and 8.246 | cisplatin IC50 (H1299 cells; H1299, pLKO.1 control): 13.89 and 13.96 and 12.36 | cisplatin IC50 (KB-3-1cisR cells [2]; DLAT #1 shRNA knockdown): 5.222 and 4.723 and 5.403 | cisplatin IC50 (KB-3-1cisR cells [2]; DLAT #2 shRNA knockdown): 8.292 and 8.491 and 9.402 | cisplatin IC50 (KB-3-1cisR cells [2]; pLKO.1 control): 35.64 and 37.47 and 39.03 | cisplatin IC50 (PCI-37B cells; DLAT #1 shRNA knockdown): 0.6706 and 0.655 and 0.6977 | cisplatin IC50 (PCI-37B cells; DLAT #2 shRNA knockdown): 1.089 and 1.15 and 1.31 | cisplatin IC50 (PCI-37B cells; pLKO.1 control): 2.128 and 2.267 and 2.42 | pIC50 (A549cisR cells [3]): 4.75 | pIC50 (KB-3-1cisR cells [4]): 4.22 | Cell cycle, G1 phase [5, 7]: 34.1 | Cell cycle, G2 phase [5, 7]: 36.2 | Cell cycle, S phase [5, 7]: 29.7 | Cell cycle, G1 phase [5, 8]: 33.1 | Cell cycle, G2 phase [5, 8]: 39.3 | Cell cycle, G1 phase [5, 9]: 33.1 | Cell cycle, G2 phase [5, 9]: 38.8 | Cell cycle, S phase [5, 9]: 28.1 | Cell cycle, G1 phase [5, 10]: 39.2 | Cell cycle, G2 phase [5, 10]: 37.2 | Cell cycle, S phase [5, 10]: 23.6 | Cell cycle, G1 phase [5, 11]: 39.5 | Cell cycle, G2 phase [5, 11]: 39.6 | Cell cycle, S phase [5, 11]: 20.9 | Cell cycle, G1 phase [5, 12]: 39.5 | Cell cycle, G2 phase [5, 12]: 38.6 | Cell cycle, S phase [5, 12]: 21.9 | Cell cycle, G1 phase [5, 13]: 23.3 | Cell cycle, G2 phase [5, 13]: 58.9 | Cell cycle, S phase [5, 13]: 17.8 | Cell cycle, G1 phase [5, 14]: 23.7 | Cell cycle, G2 phase [5, 14]: 58.1 | Cell cycle, S phase [5, 14]: 18.2 | Cell cycle, G1 phase [5, 15]: 24.3 | Cell cycle, G2 phase [5, 15]: 57.9 | Cell cycle, S phase [5, 15]: 17.8 | Cell cycle, G1 phase [5, 16]: 18.3 | Cell cycle, G2 phase [5, 16]: 63.6 | Cell cycle, S phase [5, 16]: 18.1 | Cell cycle, G1 phase [5, 17]: 17.6 | Cell cycle, G2 phase [5, 17]: 63.5 | Cell cycle, S phase [5, 17]: 18.9 | Cell cycle, G1 phase [5, 18]: 17 | Cell cycle, S phase [5, 18]: 19.8 | Ac-K44 (IHC score) ([6]; n=1): 2 | DLAT (IHC score) ([6]; n=1): 1 | MT-CO2 (IHC score) ([6]; n=1): 3 | Ac-K44 (IHC score) ([6]; n=2): 2 | DLAT (IHC score) ([6]; n=2): 2 | MT-CO2 (IHC score) ([6]; n=2): 3 | Ac-K44 (IHC score) ([6]; n=3): 3 | DLAT (IHC score) ([6]; n=3): 3 | MT-CO2 (IHC score) ([6]; n=3): 3 | Ac-K44 (IHC score) ([6]; n=4): 3 | DLAT (IHC score) ([6]; n=4): 2 | MT-CO2 (IHC score) ([6]; n=4): 2 | Ac-K44 (IHC score) ([6]; n=5): 2 | DLAT (IHC score) ([6]; n=5): 2 | MT-CO2 (IHC score) ([6]; n=5): 3
